SMILES strings stand for the structures.

For one test, the target named is T1, human LTA4 hydrolase (Homo sapiens, UniProt P09960).
T1 sequence (P09960 1-611): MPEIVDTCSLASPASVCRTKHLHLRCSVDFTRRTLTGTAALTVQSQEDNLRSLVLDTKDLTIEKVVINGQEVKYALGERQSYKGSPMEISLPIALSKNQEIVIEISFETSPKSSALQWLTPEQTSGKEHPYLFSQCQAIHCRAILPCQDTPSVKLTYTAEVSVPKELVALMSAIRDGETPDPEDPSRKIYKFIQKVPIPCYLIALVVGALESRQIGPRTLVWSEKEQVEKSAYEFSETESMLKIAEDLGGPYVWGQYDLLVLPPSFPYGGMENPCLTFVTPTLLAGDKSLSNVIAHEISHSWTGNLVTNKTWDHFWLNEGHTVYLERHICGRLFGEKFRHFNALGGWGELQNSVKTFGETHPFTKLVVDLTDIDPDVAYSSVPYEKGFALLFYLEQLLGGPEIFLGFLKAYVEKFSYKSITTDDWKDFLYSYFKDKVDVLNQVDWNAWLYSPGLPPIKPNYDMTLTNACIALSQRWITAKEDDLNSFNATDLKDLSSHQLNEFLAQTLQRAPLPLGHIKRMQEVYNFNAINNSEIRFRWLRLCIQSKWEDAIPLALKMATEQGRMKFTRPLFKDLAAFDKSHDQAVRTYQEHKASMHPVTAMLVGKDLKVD
In words: LTA4H Enzyme assay (peptidase, Arg-AMC cleavage). It counts as biochemical. To be noted: LTA4H enzyme 1 nM, Arg-AMC substrate 50 μM, room temperature 1 h, fluorescence 380/460 nm. In a few lines: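 Human LTA4H (1 nM final) incubated with compound and Arg-AMC (50 μM final) in 50 mM Tris-HCl pH 7.5, 100 mM KCl, 0.5% BSA, 1 h at room temperature. Product read as AMC fluorescence (ex 380/em 460 nm); IC50 reported.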

Test [1] relates to LTB4 synthesis in human whole blood. Description: human whole blood (HWB) assay, inhibition of LTB4 production. It counts as cell-based. To be noted: heparinized human whole blood, calcimycin 20 μM stimulation, plasma LTB4. In a few lines:
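Plasma LTB4, quantified by HTRF immunoassay, is the read-out after calcimycin challenge (20 μM final, 30 min, 37 °C) of heparinized whole blood that had been pretreated with compound for 15 min at 37 °C; values given as IC50.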

`O=c1cccc2n1C[C@H]1C[C@@H]2CN(Cc2ccc3cc(Oc4ccc(-c5ccn[nH]5)cn4)ccc3n2)C1` [Example 213, (1R,5S)-3-{6-[5-(2H-Pyrazol-3-yl)-pyridin-2-yloxy]-quinolin-2-ylmethyl}-1,2,3,4,5,6-hexahydro-1,5-methano-pyrido[1,2-a][1,5]diazocin-8-one]: the IC50 stood at 0.77 nM against human LTA4 hydrolase and 390 nM in test [1].

As to `c1cc(-c2ccc(Oc3ccc4nn(CCCN5CCCC5)cc4c3)cc2)[nH]n1` [Example 105, 5-[4-(2H-Pyrazol-3-yl)-phenoxy]-2-(3-pyrrolidin-1-yl-propyl)-2H-indazole], the concentration for half-maximal inhibition (IC50) at human LTA4 hydrolase was 0.53 nM; in test [1], 200 nM.

Take `c1cc(-c2ccc(Oc3ccc4nc(CN5CCOCC5)ccc4c3)cc2)[nH]n1` [Example 254, 2-Morpholin-4-ylmethyl-6-[4-(2H-pyrazol-3-yl)-phenoxy]-quinoline]: the results for the half-maximal inhibitory concentration (IC50) (against human LTA4 hydrolase; in test [1]) were 0.7 nM and 330 nM, respectively.

For `CCC(=O)N1CCN(Cc2ccc3cc(Oc4ccc(-c5ccn[nH]5)cn4)ccc3n2)CC1` [Example 29, 1-(4-{6-[5-(2H-Pyrazol-3-yl)-pyridin-2-yloxy]-quinolin-2-ylmethyl}-piperazin-1-yl)-propan-1-one], the 50% inhibitory concentration (IC50) was 0.66 nM at human LTA4 hydrolase and 190 nM in test [1].

Consider `CC(=O)NC[C@@H]1[C@H]2CN(Cc3ccc4cc(Oc5ccc(-c6ccn[nH]6)cn5)ccc4n3)C[C@@H]12` [Example 41, N-((1α,5α,6α)-3-{6-[5-(2H-Pyrazol-3-yl)-pyridin-2-yloxy]-quinolin-2-ylmethyl}-3-aza-bicyclo[3.1.0]hex-6-ylmethyl)-acetamide], for which the results for the IC50 (at human LTA4 hydrolase; in test [1]) were 0.99 nM and 320 nM, respectively.

Regarding `CC(=O)N1CCC(N(C)Cc2ccc3cc(Oc4ccc(-c5ccn[nH]5)cn4)ccc3n2)CC1` [Example 110, 1-[4-(Methyl-{6-[5-(2H-pyrazol-3-yl)-pyridin-2-yloxy]-quinolin-2-ylmethyl}-amino)-piperidin-1-yl]-ethanone], the IC50 was 0.7 nM on human LTA4 hydrolase and 240 nM in test [1].

As to `Cc1noc(C2CCN(Cc3nc4cc(Oc5ccc(-c6ccn[nH]6)cc5)ccc4[nH]3)CC2)n1` [Example 65, 2-[4-(3-Methyl-[1,2,4]oxadiazol-5-yl)-piperidin-1-ylmethyl]-5-[4-(2H-pyrazol-3-yl)-phenoxy]-1H-benzoimidazole], the values for the 50% inhibitory concentration (IC50) (on human LTA4 hydrolase; in test [1]) were 0.15 nM and 180 nM, respectively.

Regarding `N#C[C@@H]1CCN(Cc2ccc3cc(Oc4ccc(-c5ccn[nH]5)cn4)ccc3n2)C1` [Example 107, (R)-1-{6-[5-(2H-Pyrazol-3-yl)-pyridin-2-yloxy]-quinolin-2-ylmethyl}-pyrrolidine-3-carbonitrile], the IC50 at human LTA4 hydrolase stood at 2 nM; in test [1], 220 nM.

Consider `COC(=O)c1ccc(CN2C[C@@H]3C[C@H]2CN3Cc2nc3cc(Oc4ccc(-c5ccn[nH]5)cc4)ccc3[nH]2)cc1` [Example 150, 4-((1S,4S)-5-{5-[4-(2H-Pyrazol-3-yl)-phenoxy]-1H-benzoimidazol-2-ylmethyl}-2,5-diaza-bicyclo[2.2.1]hept-2-ylmethyl)-benzoic acid methyl ester], for which the IC50 against human LTA4 hydrolase came out at 0.32 nM; in test [1], 300 nM.

For the compound `CO[C@@H]1CCN(Cc2ccc3cc(Oc4ccc(-c5ccn[nH]5)cn4)ccc3n2)C1` [Example 205, 2-((R)-3-Methoxy-pyrrolidin-1-ylmethyl)-6-[5-(2H-pyrazol-3-yl)-pyridin-2-yloxy]-quinoline], the values for the half-inhibitory concentration (IC50) (on human LTA4 hydrolase; in test [1]) were 1.2 nM and 210 nM, respectively.

Take `O=C1CCCN1C1CCN(CC2Cc3ccc(Oc4ccc(-c5ccn[nH]5)cc4)cc3O2)CC1` (stereo not drawn) [Example 198, 1-(1-{6-[4-(2H-Pyrazol-3-yl)-phenoxy]-2,3-dihydro-benzofuran-2-ylmethyl}-piperidin-4-yl)-pyrrolidin-2-one]: the half-inhibitory concentration (IC50) against human LTA4 hydrolase is 0.35 nM; in test [1] it was 180 nM.

With `CC(=O)N1CCN(CCn2ncc3cc(Oc4ccc(-c5ccn[nH]5)cn4)ccc32)CC1` [Example 94, 1-[4-(2-{5-[5-(2H-Pyrazol-3-yl)-pyridin-2-yloxy]-indazol-1-yl}-ethyl)-piperazin-1-yl]-ethanone], the 50% inhibitory concentration (IC50) against human LTA4 hydrolase worked out at 1.3 nM; in test [1] it was 150 nM.

For `CC[C@H](C)N(C)Cc1nc2cc(Oc3ccc(-c4ccn[nH]4)cc3)ccc2[nH]1` [Example 74, ((S)-sec-butyl)-methyl-{5-[4-(2H-pyrazol-3-yl)-phenoxy]-1H-benzoimidazol-2-ylmethyl}-amine], the IC50 stood at 0.099 nM at human LTA4 hydrolase and 67 nM in test [1].

Turning to `c1cc(-c2ccc(Oc3ccc4nc(CN5CCCC5)cn4c3)cc2)[nH]n1` [Example 246, 6-[4-(2H-Pyrazol-3-yl)-phenoxy]-2-pyrrolidin-1-ylmethyl-imidazo[1,2-a]pyridine], the values for the IC50 (against human LTA4 hydrolase; in test [1]) were 0.17 nM and 180 nM, respectively.

`CC(=O)N1CCN(Cc2cc3cc(Oc4ccc(-c5ccn[nH]5)cn4)ccc3[nH]2)CC1` [Example 222, 1-(4-{5-[5-(2H-Pyrazol-3-yl)-pyridin-2-yloxy]-1H-indol-2-ylmethyl}-piperazin-1-yl)-ethanone]: the IC50 at human LTA4 hydrolase is 0.73 nM; in test [1], 230 nM.

Take `c1cc(-c2ccc(Oc3ccn4cc(CN5CCOCC5)nc4c3)cc2)[nH]n1` [Example 257, 2-Morpholin-4-ylmethyl-7-[4-(2H-pyrazol-3-yl)-phenoxy]-imidazo[1,2-a]pyridine]: the IC50 was 2.5 nM on human LTA4 hydrolase and 650 nM in test [1].

On to `c1cc(-c2ccc(Oc3ccc4nc(CN5CCOCC5)oc4c3)cc2)[nH]n1` [Example 114, 2-morpholin-4-ylmethyl-6-[4-(2H-pyrazol-3-yl)-phenoxy]-benzoxazole], for which the IC50 came out at 0.75 nM at human LTA4 hydrolase and 500 nM in test [1].

Take `CN(C)Cc1ccc2cc(Oc3ccc(-c4ccn[nH]4)cc3)ccc2n1` [Example 123, Dimethyl-{6-[4-(2H-pyrazol-3-yl)-phenoxy]-quinolin-2-ylmethyl}-amine]: the IC50 at human LTA4 hydrolase turned out to be 0.44 nM; in test [1], 240 nM.

With `C[C@H]1COCCN1Cc1nc2cc(Oc3ccc(-c4ccn[nH]4)cc3)ccc2[nH]1` [Example 62, 2-((S)-3-Methyl-morpholin-4-ylmethyl)-5-[4-(2H-pyrazol-3-yl)-phenoxy]-1H-benzoimidazole], the figures for the IC50 (against human LTA4 hydrolase; in test [1]) were 0.13 nM and 150 nM, respectively.

In the case of `CC(=O)N1CCCN(CCc2coc3cc(Oc4ccc(-c5ccn[nH]5)cn4)ccc23)CC1` [Example 134, 1-[4-(2-{6-[5-(2H-Pyrazol-3-yl)-pyridin-2-yloxy]-benzofuran-3-yl}-ethyl)-[1,4]diazepan-1-yl]-ethanone], the 50% inhibitory concentration (IC50) is 0.28 nM on human LTA4 hydrolase and 150 nM in test [1].

Consider `O=C1OCCCN1C1CCN(Cc2ccc3cc(Oc4ccc(-c5ccn[nH]5)cn4)ccc3n2)CC1` [Example 190, 3-(1-{6-[5-(2H-Pyrazol-3-yl)-pyridin-2-yloxy]-quinolin-2-ylmethyl}-piperidin-4-yl)-[1,3]oxazinan-2-one], for which the figures for the IC50 (at human LTA4 hydrolase; in test [1]) were 0.53 nM and 170 nM, respectively.

With `c1cc(-c2ccc(Oc3ccc4[nH]c(CN5CCCC5)nc4c3)cc2)[nH]n1` [Example 52, 5-[4-(2H-Pyrazol-3-yl)-phenoxy]-2-pyrrolidin-1-ylmethyl-1H-benzoimidazole], the half-maximal inhibitory concentration (IC50) at human LTA4 hydrolase is 0.12 nM; in test [1] it was 66 nM.

Turning to `O=C(N1CCN(Cc2nc3cc(Oc4ccc(-c5ccn[nH]5)cc4)ccc3[nH]2)CC1)C(F)(F)F` [Example 57, 2,2,2-Trifluoro-1-(4-[5-[4-(2H-pyrazol-3-yl)-phenoxy]-1H-benzoimidazol-2-ylmethyl]-piperazin-1-yl)-ethanone], the figures for the IC50 (against human LTA4 hydrolase; in test [1]) were 0.13 nM and 110 nM, respectively.

For `CC(=O)N1CC2CN(Cc3ccc4cc(Oc5ccc(-c6ccn[nH]6)cn5)ccc4n3)CC2C1` (stereo not drawn) [Example 32, 1-(5-{6-[5-(2H-Pyrazol-3-yl)-pyridin-2-yloxy]-quinolin-2-ylmethyl}-hexahydro-pyrrolo[3,4-c]pyrrol-2-yl)-ethanone], the figures for the IC50 (at human LTA4 hydrolase; in test [1]) were 0.85 nM and 210 nM, respectively.

As to `CC(=O)N1CCN(Cc2ccc3cc(Oc4ccc(-c5ccn[nH]5)cc4)ccc3n2)CC1` [Example 247, 1-(4-{6-[4-(2H-Pyrazol-3-yl)-phenoxy]-quinolin-2-ylmethyl}-piperazin-1-yl)-ethanone], the results for the IC50 (against human LTA4 hydrolase; in test [1]) were 0.21 nM and 190 nM, respectively.

Consider `c1cc(-c2ccc(Oc3ccc4ncc(CN5CCOCC5)cc4c3)cc2)[nH]n1` [Example 249, 3-Morpholin-4-ylmethyl-6-[4-(2H-pyrazol-3-yl)-phenoxy]-quinoline], for which the IC50 against human LTA4 hydrolase came to 0.37 nM; in test [1] it was 200 nM.

For `COC1CCCN(Cc2nc3cc(Oc4ccc(-c5ccn[nH]5)cc4)ccc3[nH]2)C1` (stereo not drawn) [Example 172, 2-(3-Methoxy-piperidin-1-ylmethyl)-5-[4-(2H-pyrazol-3-yl)-phenoxy]-1H-benzoimidazole], the results for the half-inhibitory concentration (IC50) (on human LTA4 hydrolase; in test [1]) were 0.07 nM and 130 nM, respectively.

These data come from patent US9403830B2, “Inhibitors of leukotriene production” (Boehringer Ingelheim International GmbH, priority 2012, dated 2016).
